Test results taken from ChEMBL document CHEMBL1201861, “Genomics of Drug Sensitity in Cancer screening data, Wellcome Trust Sanger Institute”.

Legend:
Test in all cases: cells
COR-L105 = type: functional, cell-based; details: Homo sapiens;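 note: cell growth inhibition determined with a viability assay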
Description: SANGER: Inhibition of human COR-L105 cell growth in a cell viability assay.

Ca9-22 = type: functional, cell-based; details: Homo sapiens;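 note: growth inhibition of Ca9-22 cells, read out with a cell viability assay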
Description: SANGER: Inhibition of human Ca9-22 cell growth in a cell viability assay.

D-336MG = type: functional, cell-based, Homo sapiens; details: Homo sapiens, D-336MG
Description: SANGER: Inhibition of human D-336MG cell growth in a cell viability assay.

DMS-273 = type: functional, cell-based; details: Homo sapiens
Description: SANGER: Inhibition of human DMS-273 cell growth in a cell viability assay.

EFO-21 = type: functional, cell-based; details: Homo sapiens;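 note: growth inhibition of EFO-21 cells measured with a viability assay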
Description: SANGER: Inhibition of human EFO-21 cell growth in a cell viability assay.

FTC-133 = type: functional, cell-based; details: Homo sapiens
GAMG = type: functional, cell-based; details: Homo sapiens;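 note: cell growth inhibition measured by a viability assay in the GAMG human cell line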
Description: SANGER: Inhibition of human GAMG cell growth in a cell viability assay.

HCC1419 = type: functional, cell-based; details: Homo sapiens;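 note: growth inhibition of human HCC1419 cells, read out as cell viability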
Description: SANGER: Inhibition of human HCC1419 cell growth in a cell viability assay.

HCC1569 = type: functional, cell-based; details: Homo sapiens;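 note: growth inhibition of human HCC1569 cells, read out with a cell viability assay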
Description: SANGER: Inhibition of human HCC1569 cell growth in a cell viability assay.

HLE = type: functional, cell-based; details: Homo sapiens;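 note: growth inhibition of human HLE cells, read out by a cell viability assay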
Description: SANGER: Inhibition of human HLE cell growth in a cell viability assay.

HT-1080 = type: functional, cell-based; details: Homo sapiens
Description: SANGER: Inhibition of human HT-1080 cell growth in a cell viability assay.

HuCCT-1 = type: functional, cell-based, HuCCT1; details: Homo sapiens;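 note: growth inhibition of HuCCT-1 cells, read out by a cell viability assay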
Description: SANGER: Inhibition of human HuCCT1 cell growth in a cell viability assay.

KYSE-150 cell line = type: functional, cell-based; details: Homo sapiens;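 note: growth inhibition of human KYSE-150 cells, read out with a cell viability assay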
Description: SANGER: Inhibition of human KYSE-150 cell growth in a cell viability assay.

MC-IXC = type: functional, cell-based; details: Homo sapiens;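 note: growth inhibition of MC-IXC cells, read out with a cell viability assay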
Description: SANGER: Inhibition of human MC-IXC cell growth in a cell viability assay.

MDA-MB-361 = type: functional, cell-based; details: Homo sapiens
NCI-H1563 = type: functional, cell-based; details: Homo sapiens;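 note: growth inhibition of human NCI-H1563 cells, read out with a cell viability assay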
Description: SANGER: Inhibition of human NCI-H1563 cell growth in a cell viability assay.

NCI-H1573 = type: functional, cell-based; details: Homo sapiens;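 note: growth inhibition of NCI-H1573 cells, read out with a cell viability assay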
Description: SANGER: Inhibition of human NCI-H1573 cell growth in a cell viability assay.

NCI-H2122 = type: functional, cell-based; details: Homo sapiens;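 note: growth inhibition of the cells, read out with a cell viability assay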
Description: SANGER: Inhibition of human NCI-H2122 cell growth in a cell viability assay.

NCI-H2452 = type: functional, cell-based; details: Homo sapiens;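 note: growth inhibition of NCI-H2452 cells, read out with a cell viability assay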
Description: SANGER: Inhibition of human NCI-H2452 cell growth in a cell viability assay.

NCI-H28 = type: functional, cell-based; details: Homo sapiens;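 note: growth inhibition of human NCI-H28 cells, read out as cell viability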
Description: SANGER: Inhibition of human NCI-H28 cell growth in a cell viability assay.

NCI-H661 = type: functional, cell-based; details: Homo sapiens;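 note: cell viability assay read-out, IC50 being the concentration that inhibits growth of the cells by half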
Description: SANGER: Inhibition of human NCI-H661 cell growth in a cell viability assay.

PA-1 = type: functional, cell-based; details: Homo sapiens;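 note: IC50 for suppression of PA-1 cell proliferation, determined with a cell viability read-out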
Description: SANGER: Inhibition of human PA-1 cell growth in a cell viability assay.

Panc1005 = type: functional, cell-based; details: Homo sapiens;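 note: growth inhibition of human PANC-10-05 cells, measured by a cell viability assay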
Description: SANGER: Inhibition of human PANC-10-05 cell growth in a cell viability assay.

SAS = type: functional, cell-based; details: Homo sapiens;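 note: growth inhibition of SAS cells, read out with a cell viability assay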
Description: SANGER: Inhibition of human SAS cell growth in a cell viability assay.

SBC-5 = type: functional, cell-based; details: Homo sapiens;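 note: cell viability assay read-out, IC50 is the concentration that inhibits growth of the cells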
Description: SANGER: Inhibition of human SBC-5 cell growth in a cell viability assay.

SF-295 = type: functional, cell-based; details: Homo sapiens;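 note: growth inhibition of SF-295 cells, read out with a cell viability assay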
Description: SANGER: Inhibition of human SF295 cell growth in a cell viability assay.

SW1710 = type: functional, cell-based; details: Homo sapiens;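 note: growth inhibition of SW1710 cells, determined with a cell viability assay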
Description: SANGER: Inhibition of human SW1710 cell growth in a cell viability assay.

SW-620 = type: functional, cell-based; details: Homo sapiens;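 note: growth inhibition of human SW-620 cells, measured by a cell viability assay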
Description: SANGER: Inhibition of human SW620 cell growth in a cell viability assay.

SW756 = type: functional, cell-based; details: Homo sapiens;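 note: growth inhibition of human SW756 cells, read out with a cell viability assay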
Description: SANGER: Inhibition of human SW756 cell growth in a cell viability assay.

T-24 = type: functional, cell-based; details: Homo sapiens;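 note: growth inhibition of T-24 cells, read out with a cell viability assay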
Description: SANGER: Inhibition of human T-24 cell growth in a cell viability assay.

T47D = type: functional, cell-based; details: Homo sapiens;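 note: growth inhibition of human T47D cells, measured with a cell viability assay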
Description: SANGER: Inhibition of human T47D cell growth in a cell viability assay.

5637 = type: functional, cell-based; details: Homo sapiens
Description: SANGER: Inhibition of human 5637 cell growth in a cell viability assay.

639-V = type: functional, cell-based; details: Homo sapiens;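 note: growth inhibition of 639-V cells, read out with a cell viability assay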
Description: SANGER: Inhibition of human 639-V cell growth in a cell viability assay.

786-0 = type: functional, cell-based; details: Homo sapiens
Description: SANGER: Inhibition of human 786-0 cell growth in a cell viability assay.

8505C = type: functional, cell-based; details: Homo sapiens
Description: SANGER: Inhibition of human 8505C cell growth in a cell viability assay.

BFTC-905 = type: functional, cell-based; details: Homo sapiens
Description: SANGER: Inhibition of human BFTC-905 cell growth in a cell viability assay.

C3A = type: functional, cell-based; details: Homo sapiens;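 note: growth inhibition of C3A human cells, quantified with a cell viability readout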
Description: SANGER: Inhibition of human C3A cell growth in a cell viability assay.

CAL-12T = type: functional, cell-based; details: Homo sapiens;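 note: growth inhibition of human CAL-12T cells, read out with a cell viability assay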
Description: SANGER: Inhibition of human CAL-12T cell growth in a cell viability assay.

CAL-85-1 = type: functional, cell-based; details: Homo sapiens;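 note: growth inhibition of human CAL-85-1 cells, read out with a cell viability assay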
Description: SANGER: Inhibition of human CAL-85-1 cell growth in a cell viability assay.

U-251 = type: functional, cell-based; details: Homo sapiens;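 note: growth inhibition of human U-251 cells, read out through a cell viability assay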
Description: SANGER: Inhibition of human U251 cell growth in a cell viability assay.

UACC-62 = type: functional, cell-based; details: Homo sapiens;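 note: growth inhibition of human UACC-62 cells, read out by a cell viability assay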
Description: SANGER: Inhibition of human UACC-62 cell growth in a cell viability assay.

VM-CUB-1 = type: functional, cell-based; details: Homo sapiens;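 note: cell viability assay measuring growth inhibition of the human VM-CUB-1 cell line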
Description: SANGER: Inhibition of human VM-CUB-1 cell growth in a cell viability assay.

CAMA-1 = type: functional, cell-based; details: Homo sapiens;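 note: growth inhibition of CAMA-1 cells, read out with a cell viability assay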
Description: SANGER: Inhibition of human CAMA-1 cell growth in a cell viability assay.

CC1(C)CCC(c2ccc(Cl)cc2)=C(CN2CCN(c3ccc(C(=O)NS(=O)(=O)c4ccc(N[C@H](CCN5CCOCC5)CSc5ccccc5)c(S(=O)(=O)C(F)(F)F)c4)cc3)CC2)C1 [NAVITOCLAX]
IC50 (COR-L105): > 2 µM | IC50 (Ca9-22): > 2 µM | IC50 (D-336MG): > 2 µM | IC50 (DMS-273): > 2 µM | IC50 (EFO-21): > 2 µM | IC50 (FTC-133): > 2 µM | IC50 (GAMG): > 2 µM | IC50 (HCC1419): > 2 µM | IC50 (HCC1569): 0.251 µM | IC50 (HLE): > 2 µM | IC50 (HT-1080): > 2 µM | IC50 (HuCCT-1): > 2 µM | IC50 (KYSE-150 cell line): > 2 µM | IC50 (MC-IXC): > 2 µM | IC50 (MDA-MB-361): > 2 µM | IC50 (NCI-H1563): > 2 µM | IC50 (NCI-H1573): > 2 µM | IC50 (NCI-H2122): > 2 µM | IC50 (NCI-H2452): > 2 µM | IC50 (NCI-H28): > 2 µM | IC50 (NCI-H661): > 2 µM | IC50 (PA-1): 0.956 µM | IC50 (Panc1005): > 2 µM | IC50 (SAS): > 2 µM | IC50 (SBC-5): > 2 µM | IC50 (SF-295): > 2 µM | IC50 (SW1710): > 2 µM | IC50 (SW-620): > 2 µM | IC50 (SW756): > 2 µM | IC50 (T-24): > 2 µM | IC50 (T47D): > 2 µM | IC50 5637: > 2 µM | IC50 (639-V): > 2 µM | IC50 (786-0): > 2 µM | IC50 (8505C): > 2 µM | IC50 (BFTC-905): > 2 µM | IC50 (C3A): > 2 µM | IC50 (CAL-12T): > 2 µM | IC50 (CAL-85-1): > 2 µM | IC50 (U-251): > 2 µM | IC50 (UACC-62): > 2 µM | IC50 (VM-CUB-1): > 2 µM | IC50 (CAMA-1): > 2 µM

CN(C)CCOc1ccc(-c2nc(-c3ccncc3)c(-c3ccc4c(c3)CC/C4=N\O)[nH]2)cc1 [SB590885]
IC50 (COR-L105): > 5 µM | IC50 (Ca9-22): > 5 µM | IC50 (DMS-273): > 5 µM | IC50 (EFO-21): > 5 µM | IC50 (FTC-133): > 5 µM | IC50 (GAMG): > 5 µM | IC50 (HCC1419): > 5 µM | IC50 (HCC1569): > 5 µM | IC50 (HLE): > 5 µM | IC50 (HT-1080): > 5 µM | IC50 (HuCCT-1): > 5 µM | IC50 (KYSE-150 cell line): > 5 µM | IC50 (MC-IXC): > 5 µM | IC50 (MDA-MB-361): > 5 µM | IC50 (NCI-H1563): > 5 µM | IC50 (NCI-H1573): > 5 µM | IC50 (NCI-H2122): > 5 µM | IC50 (NCI-H2452): > 5 µM | IC50 (NCI-H28): > 5 µM | IC50 (NCI-H661): > 5 µM | IC50 (PA-1): > 5 µM | IC50 (Panc1005): > 5 µM | IC50 (SAS): > 5 µM | IC50 (SBC-5): > 5 µM | IC50 (SF-295): > 5 µM | IC50 (SW1710): > 5 µM | IC50 (SW-620): > 5 µM | IC50 (SW756): > 5 µM | IC50 (T-24): > 5 µM | IC50 (T47D): > 5 µM | IC50 5637: > 5 µM | IC50 (639-V): > 5 µM | IC50 (786-0): > 5 µM | IC50 (8505C): > 5 µM | IC50 (BFTC-905): > 5 µM | IC50 (C3A): > 5 µM | IC50 (CAL-12T): > 5 µM | IC50 (CAL-85-1): > 5 µM | IC50 (U-251): > 5 µM | IC50 (UACC-62): > 5 µM | IC50 (VM-CUB-1): > 5 µM | IC50 (CAMA-1): > 5 µM

CS(=O)(=O)N1CCN(Cc2cc3nc(-c4cccc5[nH]ncc45)nc(N4CCOCC4)c3s2)CC1 [PICTILISIB]
IC50 (COR-L105): > 4 µM | IC50 (Ca9-22): > 4 µM | IC50 (DMS-273): 2.86 µM | IC50 (EFO-21): > 4 µM | IC50 (FTC-133): > 4 µM | IC50 (GAMG): 0.371 µM | IC50 (HCC1419): 2.21 µM | IC50 (HCC1569): > 4 µM | IC50 (HLE): > 4 µM | IC50 (HT-1080): 3.09 µM | IC50 (HuCCT-1): > 4 µM | IC50 (KYSE-150 cell line): > 4 µM | IC50 (MC-IXC): > 4 µM | IC50 (MDA-MB-361): 0.439 µM | IC50 (NCI-H1563): 0.916 µM | IC50 (NCI-H1573): > 4 µM | IC50 (NCI-H2122): > 4 µM | IC50 (NCI-H2452): > 4 µM | IC50 (NCI-H28): 3.05 µM | IC50 (NCI-H661): > 4 µM | IC50 (PA-1): 0.532 µM | IC50 (Panc1005): > 4 µM | IC50 (SAS): > 4 µM | IC50 (SBC-5): > 4 µM | IC50 (SF-295): 2.32 µM | IC50 (SW1710): 1.04 µM | IC50 (SW-620): > 4 µM | IC50 (SW756): > 4 µM | IC50 (T-24): > 4 µM | IC50 (T47D): 0.598 µM | IC50 5637: 2.71 µM | IC50 (639-V): 1.5 µM | IC50 (786-0): 2.59 µM | IC50 (8505C): > 4 µM | IC50 (BFTC-905): 1.13 µM | IC50 (C3A): > 4 µM | IC50 (CAL-12T): > 4 µM | IC50 (CAL-85-1): > 4 µM | IC50 (U-251): > 4 µM | IC50 (UACC-62): > 4 µM | IC50 (VM-CUB-1): > 4 µM | IC50 (CAMA-1): > 4 µM
